# Article PMC6418866 (Journal of the American Chemical Society, 2019)
# Where two headings read alike, the source gives them in different places.
# What was measured:
# [1] = biological target: T1, recombinant human GBA (rGBA, Cerezyme) (Homo sapiens, UniProt P04062, R534H); settings: read-out: Apparent IC50, rGBA; 3 h preincubation; cited from earlier work
# T1 sequence (P04062 40-536 R534H): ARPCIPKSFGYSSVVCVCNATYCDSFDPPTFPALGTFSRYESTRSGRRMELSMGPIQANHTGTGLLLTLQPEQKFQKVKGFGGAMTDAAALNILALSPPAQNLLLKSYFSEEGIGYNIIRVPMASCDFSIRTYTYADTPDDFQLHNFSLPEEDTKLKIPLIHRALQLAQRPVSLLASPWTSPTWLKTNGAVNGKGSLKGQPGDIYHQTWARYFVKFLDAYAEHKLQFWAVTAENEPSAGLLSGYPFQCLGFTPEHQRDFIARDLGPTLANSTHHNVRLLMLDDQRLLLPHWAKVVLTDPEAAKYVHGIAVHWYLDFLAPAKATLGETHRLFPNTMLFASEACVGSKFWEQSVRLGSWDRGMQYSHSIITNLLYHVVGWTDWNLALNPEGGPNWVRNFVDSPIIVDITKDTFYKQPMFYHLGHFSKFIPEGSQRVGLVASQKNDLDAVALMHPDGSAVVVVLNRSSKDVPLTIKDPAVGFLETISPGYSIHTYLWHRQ
# [2] = biological target: recombinant human GAA (rGAA, Myozyme) (Homo sapiens, UniProt P10253); test: In vitro inhibition of rGAA; settings: IC50 ratio
# [3] = test system: GBA; settings: cited from earlier work
# [4] = test system: glucosylsphingosine (GlcSph); test: Glucosylsphingosine levels in treated zebrafish embryos; format: in vivo, Danio rerio; settings: 0.1–10 μM inhibitor, zebrafish embryos treated 5 days
# [5] = biological target: T2, GAA (Danio rerio, UniProt A0A8M1QKP5); test: In vivo GAA inactivation in zebrafish larvae, ABP labeling; settings: 0.1–10 μM, 5 days in vivo
# T2 sequence (A0A8M1QKP5 31-918): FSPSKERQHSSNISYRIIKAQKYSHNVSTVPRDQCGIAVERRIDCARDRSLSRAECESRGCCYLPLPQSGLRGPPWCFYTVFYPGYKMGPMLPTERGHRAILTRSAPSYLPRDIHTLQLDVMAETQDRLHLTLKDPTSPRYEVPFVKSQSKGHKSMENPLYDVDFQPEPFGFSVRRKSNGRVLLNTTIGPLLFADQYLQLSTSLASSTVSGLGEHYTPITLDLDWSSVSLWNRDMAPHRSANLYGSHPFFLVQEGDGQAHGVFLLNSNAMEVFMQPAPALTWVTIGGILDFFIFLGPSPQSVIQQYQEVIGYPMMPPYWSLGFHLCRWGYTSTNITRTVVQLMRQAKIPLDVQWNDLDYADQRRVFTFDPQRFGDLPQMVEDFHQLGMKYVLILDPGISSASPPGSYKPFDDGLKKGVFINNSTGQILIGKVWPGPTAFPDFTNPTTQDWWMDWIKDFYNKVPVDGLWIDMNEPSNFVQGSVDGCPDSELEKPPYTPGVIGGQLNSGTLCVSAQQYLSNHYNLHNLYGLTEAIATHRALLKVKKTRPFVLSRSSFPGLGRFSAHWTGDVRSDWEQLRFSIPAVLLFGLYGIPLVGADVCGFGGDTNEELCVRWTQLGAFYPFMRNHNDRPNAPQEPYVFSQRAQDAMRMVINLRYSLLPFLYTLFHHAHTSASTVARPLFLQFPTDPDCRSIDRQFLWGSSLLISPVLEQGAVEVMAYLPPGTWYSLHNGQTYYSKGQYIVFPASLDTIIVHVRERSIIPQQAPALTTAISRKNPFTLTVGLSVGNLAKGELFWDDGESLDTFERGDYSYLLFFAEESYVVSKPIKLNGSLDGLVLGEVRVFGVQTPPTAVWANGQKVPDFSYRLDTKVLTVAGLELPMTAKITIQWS
# [6] = test system: LPH; test: In vivo LPH labeling in zebrafish larvae, competitive ABPP; settings: 0.1–10 μM, 5 days in vivo
# [7] = biological target: T3, GBA2 (Danio rerio, UniProt E7F5W0); test: In vivo GBA2 inactivation in zebrafish larvae, ABP labeling; settings: 0.1–10 μM, 5 days in vivo
# T3 sequence (E7F5W0 1-851): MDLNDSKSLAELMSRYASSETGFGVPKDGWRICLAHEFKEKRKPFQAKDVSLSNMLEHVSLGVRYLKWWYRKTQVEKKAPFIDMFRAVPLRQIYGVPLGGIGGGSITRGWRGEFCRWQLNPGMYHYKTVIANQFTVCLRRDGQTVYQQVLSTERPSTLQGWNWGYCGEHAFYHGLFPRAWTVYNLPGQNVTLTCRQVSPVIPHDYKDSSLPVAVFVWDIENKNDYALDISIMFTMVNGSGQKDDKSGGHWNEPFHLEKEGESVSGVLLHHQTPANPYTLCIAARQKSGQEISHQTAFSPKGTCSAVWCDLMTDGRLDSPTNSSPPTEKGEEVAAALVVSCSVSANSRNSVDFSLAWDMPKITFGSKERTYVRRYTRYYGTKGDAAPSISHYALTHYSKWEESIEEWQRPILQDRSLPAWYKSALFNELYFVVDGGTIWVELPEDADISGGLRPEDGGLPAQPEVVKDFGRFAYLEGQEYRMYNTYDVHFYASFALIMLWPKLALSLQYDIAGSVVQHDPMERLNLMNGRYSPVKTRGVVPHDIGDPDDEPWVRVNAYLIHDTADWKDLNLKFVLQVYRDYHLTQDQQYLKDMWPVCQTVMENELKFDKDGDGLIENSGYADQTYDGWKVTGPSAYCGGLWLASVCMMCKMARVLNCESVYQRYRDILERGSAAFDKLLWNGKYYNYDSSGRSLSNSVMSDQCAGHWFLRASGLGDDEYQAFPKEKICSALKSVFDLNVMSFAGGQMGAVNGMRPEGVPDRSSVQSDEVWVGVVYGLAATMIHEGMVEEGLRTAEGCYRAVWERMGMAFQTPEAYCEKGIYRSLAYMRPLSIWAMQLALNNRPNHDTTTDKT
# [8] = test system: lysosomal β-glucuronidase GUSB; test: In vivo GUSB labeling in zebrafish larvae, competitive ABPP; settings: 0.1–10 μM, 5 days in vivo
# [9] = test system: ER α-glucosidase GANAB; test: In vivo GANAB labeling in zebrafish larvae, competitive ABPP; settings: 0.1–10 μM, 5 days in vivo
# [10] = biological target: T1, recombinant human GBA (rGBA, Cerezyme); test: In vitro inhibition of rGBA, 4-MU fluorogenic substrate assay; settings: Apparent IC50, in vitro rGBA, 3 h preincubation, 2 nM enzyme
# [11] = biological target: T4, GBA (Danio rerio, UniProt E7EZM1); test: In vivo GBA inactivation in zebrafish larvae, quantified by ABP labeling; settings: 0.1–10 μM, 5 days in vivo
# T4 sequence (E7EZM1 20-518): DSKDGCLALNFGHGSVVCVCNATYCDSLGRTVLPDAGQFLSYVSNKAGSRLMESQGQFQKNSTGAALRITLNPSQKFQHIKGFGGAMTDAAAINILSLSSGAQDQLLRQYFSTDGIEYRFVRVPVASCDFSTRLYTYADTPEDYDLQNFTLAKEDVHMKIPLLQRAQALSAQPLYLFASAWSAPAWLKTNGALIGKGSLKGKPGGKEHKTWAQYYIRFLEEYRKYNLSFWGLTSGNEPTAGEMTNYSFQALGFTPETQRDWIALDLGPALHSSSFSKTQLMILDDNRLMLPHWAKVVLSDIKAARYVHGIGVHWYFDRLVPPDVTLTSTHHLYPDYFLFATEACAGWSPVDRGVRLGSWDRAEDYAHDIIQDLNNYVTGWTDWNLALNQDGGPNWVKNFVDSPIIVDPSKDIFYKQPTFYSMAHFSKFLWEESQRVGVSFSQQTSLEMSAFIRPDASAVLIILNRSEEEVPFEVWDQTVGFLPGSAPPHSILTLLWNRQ
smiles,measurement,setting,value
"O[C@H]1[C@H](O)[C@@H](O)[C@@H]2O[C@@H]2[C@@H]1O (racemic) [CBE 1, conduritol B epoxide]",IC50,[1],4280 nM
same,Ratio (in vitro) GAA/GBA,[2],444
"OC[C@@H]1[C@@H](O)[C@H](O)[C@@H](O)[C@@H]2O[C@H]12 [CP 2, cyclophellitol]",GBA inhibition potency (in words),[3],high nanomolar to micromolar
"O[C@@H]1[C@@H](O)[C@@H]2O[C@@H]2[C@H](Cn2cc(CCCOCc3ccc(-c4ccccc4)cc3)nn2)[C@H]1O [Compound 6, Biphenyl-cyclophellitol]",Elevation in the level of glucosylsphingosine (GlcSph),[4],10–30 fold
same,ABP labeling of GAA in lysates of treated zebrafish,[5],not affected
same,ABP labeling of LPH in lysates of treated zebrafish,[6],not affected
same,ABP labeling of GBA2 in lysates of treated zebrafish,[7],not affected
same,ABP labeling of GUSB in lysates of treated zebrafish,[8],not affected
same,ABP labeling of GANAB in lysates of treated zebrafish,[9],not affected
same,IC50,[10],1 nM
same,ABP labeling of GBA with ABP 8 and ABP 5 in lysates of treated zebrafish,[11],abrogated
